Test results from PMC11923213, “Structural characterization reveals substrate recognition by the taurine transporter TauT” (Cell Discovery, 2025).
Residue numbers refer to the chain shown, from its start.

Columns and labels:
Assay type in all cases: cell-based
[1] = biological target: T1, TauT (taurine transporter, SLC6A6) (Homo sapiens, UniProt P31641, E406T); test: Xenopus laevis oocytes, taurine-induced inward current
T1 construct: wild-type TauT expressed in Xenopus laevis oocytes for electrophysiology; cryo-EM sample details only in supplement
T1 sequence (P31641 1-620 E406T): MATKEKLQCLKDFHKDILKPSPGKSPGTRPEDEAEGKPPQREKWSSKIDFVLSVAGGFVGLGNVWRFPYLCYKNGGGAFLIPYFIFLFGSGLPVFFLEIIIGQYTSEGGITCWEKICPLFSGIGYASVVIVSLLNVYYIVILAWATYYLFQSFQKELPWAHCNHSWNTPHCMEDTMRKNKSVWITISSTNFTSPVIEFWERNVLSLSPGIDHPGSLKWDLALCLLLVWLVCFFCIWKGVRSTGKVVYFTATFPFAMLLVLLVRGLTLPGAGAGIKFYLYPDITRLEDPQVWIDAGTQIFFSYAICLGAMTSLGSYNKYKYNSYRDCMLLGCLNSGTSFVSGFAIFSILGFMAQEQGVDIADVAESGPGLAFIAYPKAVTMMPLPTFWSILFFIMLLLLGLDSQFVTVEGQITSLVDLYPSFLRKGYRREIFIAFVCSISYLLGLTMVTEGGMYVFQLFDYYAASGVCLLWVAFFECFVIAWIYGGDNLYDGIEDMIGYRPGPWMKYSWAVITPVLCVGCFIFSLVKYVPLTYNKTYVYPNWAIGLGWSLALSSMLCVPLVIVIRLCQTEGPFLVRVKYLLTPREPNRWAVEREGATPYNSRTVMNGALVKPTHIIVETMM

[2] = biological target: T2, TauT (taurine transporter, SLC6A6; TauT^WT) (Homo sapiens, UniProt P31641); test: two-electrode voltage clamp in Xenopus laevis oocytes, taurine-induced inward current
T2 construct: wild-type TauT expressed in Xenopus laevis oocytes for electrophysiology; cryo-EM sample details only in supplement
T2 sequence (P31641 1-620): T1 sequence (P31641 1-620 E406T) with T406E

[3] = biological target: T2, TauT (taurine transporter, SLC6A6; TauT^WT); test: Xenopus laevis oocytes, β-alanine-induced inward current

Compound	EC50 [1]	EC50 [2]	EC50 [3]
NCCS(=O)(=O)O [taurine]	50.3 µM	2.9 µM	–
NCCC(=O)O [β-alanine]	–	–	5.6 µM
